Target: T1, human KSP motor domain (KSP(367H)) (Homo sapiens, UniProt P52732)
T1 construct: were used to amplify the motor domain and the neck linker region; made in house; host or cells: E. coli BL21 (DE3), vector pRSETa
T1 sequence (P52732 18-359 limits assumed): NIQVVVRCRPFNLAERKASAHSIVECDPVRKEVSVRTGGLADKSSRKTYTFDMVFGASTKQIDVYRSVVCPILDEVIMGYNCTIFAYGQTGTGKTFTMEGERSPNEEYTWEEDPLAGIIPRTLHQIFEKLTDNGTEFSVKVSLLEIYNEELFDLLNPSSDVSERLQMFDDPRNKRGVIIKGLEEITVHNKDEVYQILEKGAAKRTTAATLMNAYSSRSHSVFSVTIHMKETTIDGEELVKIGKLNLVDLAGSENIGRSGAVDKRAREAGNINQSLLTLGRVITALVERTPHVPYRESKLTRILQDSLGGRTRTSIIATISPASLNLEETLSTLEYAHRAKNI
Experiment: Kinesin ATPase In Vitro Assay
Assay type: biochemical
Details: enantiomers of 1-5 resolved on Chiralpak AD; assay not stated
From the text: I. Kinesin ATPase In Vitro Assay
Cloning and Expression of Human Poly-Histidine Tagged KSP Motor Domain (KSP(367H))
Plasmids for the expression of the human KSP motor domain construct were cloned by PCR using a pBluescript full length human KSP construct (Blangy et al., Cell, vol. 83, pp 1159-1169, 1995) as a template. The N-terminal primer 5′-[…] (SEQ.ID.NO.: 1) and the C-terminal primer 5′-[…] […] (SEQ.ID.NO.: 2) were used to amplify the motor domain and the neck linker region. The PCR products were digested with AseI and XhoI, ligated into the NdeI/XhoI digestion product of pRSETa (Invitrogen) and transformed into E. coli BL21 (DE3).
Cells were grown at 37° C. to an OD600 of 0.5. […]
The kinesin motor domain is incubated with microtubules, 1 mM ATP (1:1 MgCl2: Na-ATP), and compound at 23° C. in buffer containing 80 mM K-HEPES (pH 7.0), 1 mM EGTA, 1 mM DTT, 1 mM MgCl2, and 50 mM KCl. […] Free phosphate from the ATP hydrolysis reaction is measured via a quinaldine red/ammonium molybdate assay by adding a […] of quench C (e.g., to a mixture of 40 μl reaction volume+40 μl stop buffer is then added 120 μl quench C). […] Quench C is a 2:1 ratio of quench A:quench B The reaction is incubated for 5-10 minutes at 23° C., and the absorbance of the phospho-molybdate complex is measured at 540 nm.

**Q.** CC(=O)N1N=C(c2cc(F)ccc2F)C[C@@]1(CCCO)c1ccccc1 (single isomer, unassigned; isomer 3) [(S) isomer] was tested. Which “activity of resolved enantiomer (active / inactive)” value did it give?
**A.** active
